Data taken from the RepoRT retention time repository (doi:10.1038/s41597-019-0305-1).

Assay: RP, Waters SunFire C18, 50 × 4.6 mm, 3.5 µm, 0.5 mL/min, estimated dead time 1.1 min; A: water + 0.1% formic acid; B: acetonitrile + 0.1% formic acid; gradient (min/%B) 0/5 7/100 8/100
Conditions: stereoisomer not certain

SMILES	LC retention time
Cc1cc(O)c2c(=O)c3c(C)cc(O)cc3oc2c1	6.34 min
O=C1OC(=C2C(=O)Oc3ccccc32)C(O)=C1c1ccccc1	7.68 min
CCCCCc1cc(OC(=O)c2c(CCCCC)cc(OC)cc2OC)cc(OC)c1C(=O)O	7.52 min
Cc1cc(O)c2c(oc3cc(O)c(C(=O)O)c(C)c32)c1C(=O)O	4.01 min
CC(=O)CCCCCCCCCCCCCC1OC(=O)C(C)=C1C(=O)O (stereo not given)	6.9 min
CCCCCC1=CC(=O)C=C(OC)C12C(=O)Oc1cc(O)c(C(=O)O)c(CCCCC)c12 (stereo not given)	7.48 min
CCCc1cc(OC)cc(O)c1C(=O)Oc1c(O)cc(CCC)c(C(=O)OC)c1O	7.11 min
CCCCCCCCCCCCCCC(C(=O)OC)C(CC(=O)O)C(=O)O (stereo not given)	8 min
Cc1cc(O)c(C)c(O)c1	3.25 min
CCCCCC(=O)Cc1c(Oc2cc(OC)cc3cc(CCCCC)oc(=O)c23)c(O)cc(O)c1C(=O)O	7.09 min
COC12CC(=O)C(C(C)=O)=C(O)C1(C)c1c(O)c(C(C)=O)c(O)c(C)c1O2 (stereo not given)	6.88 min
CC(=O)OCc1c(O)c(C(=O)O)c(C)c2c1OC(=O)c1c(C)cc(O)c(C=O)c1O2	7.28 min
C=C1C(=O)OC(CCCCCCCCCCCCCC(C)O)C1C(=O)O (stereo not given)	6.53 min
COc1cc(OC(=O)c2c(C)cc(O)cc2O)cc(C)c1C(=O)Oc1cc(C)c(C(=O)O)c(O)c1	6.2 min
COc1cc(C)c(C(=O)Oc2c(C)c(C(=O)O)c(O)c(C=O)c2O)c(O)c1C=O	6.37 min
COc1c(O)c(O)c2c(c1O)C(=O)c1oc(C(C)=O)c(O)c1C2=O	4.5 min
COc1cc(C)c(C(=O)Oc2cc(C)c(C(=O)O)c(O)c2C)c(O)c1C=O	6.35 min
Cc1cc(O)c(C)c2c1C(=O)Oc1cc(O)c(C(=O)O)c(C)c1O2	5.27 min
CC(=O)OC1C(Oc2cc3oc(C)cc(=O)c3c(O)c2C)OC(CO)C(O)C1O (stereo not given)	4 min
COC1=CC(=O)c2c(O)c3c(c(O)c2C1=O)CC(C)OC3=O (stereo not given)	4.41 min
CC(=O)C1=C(O)C=C2Oc3c(C(C)=O)c(O)c(C)c(O)c3C2(C)C1=O (stereo not given)	7.27 min
Cc1cc(O)cc2c1C(=O)Oc1cc3c(c(O)c1O2)C(=O)OC3	4.58 min
CCCc1cc(OC)cc(O)c1C(=O)Oc1c(OC)cc(CCC)c(C(=O)O)c1O	7.83 min
COC(=O)c1c(OC)cc2oc3c(C(=O)O)c(C)cc(OC)c3c2c1C	5.63 min

SMILES	LC retention time
Cc1cc(O)c2c(oc3cc(O)c4c(c32)COC4=O)c1C(=O)O	3.95 min
Cc1cc(O)cc(O)c1C(=O)Oc1cc(C)c(C(=O)Oc2c(O)cc(O)c(C(=O)O)c2C)c(O)c1	5.63 min
Cc1cc(O)cc(O)c1C(=O)O	3.41 min
COC(=O)c1c(C)cc(O)c(C)c1O	5.37 min
OCC(O)C(O)CO (stereo not given)	4.05 min
CC1CCCCCCCCCCC(O)C(O)C(O)C=CC(=O)O1 (stereo not given)	5.65 min
Cc1cc(O)c(C=O)c2c1C(=O)Oc1c(CO)c(O)c(C(=O)O)c(C)c1O2	5.62 min
Cc1cc(OC(=O)c2c(C)cc(O)c(O)c2O)cc(O)c1C(=O)O	4.69 min
Cc1cc(O)c(C=O)c2c1C(=O)Oc1c(COC(=O)CCC(=O)O)c(O)c(C(=O)O)c(C)c1O2	6.28 min
CC(C)CC(NC(=O)c1ccccc1)C(=O)OCC(Cc1ccccc1)NC(=O)c1ccccc1 (stereo not given)	6.82 min
CCCCCCCCCCC1CC(C(=O)O)C(C)C(=O)O1 (stereo not given)	6.95 min
CC(C)CC(NC(=O)C(=C1OC(=O)C(c2ccccc2)=C1O)c1ccccc1)C(=O)O (stereo not given)	7.26 min
O=C1OC2=C(c3ccccc3)C(=O)OC2=C1c1ccccc1	7.64 min
COC1=CC(=O)c2c(O)c3c(c(O)c2C1=O)C(O)C(C)OC3=O (stereo not given)	4.23 min
COc1cc(CCC(C(=O)[O-])[N+](C)(C)C)cc(OC)c1O (stereo not given)	6.6 min
Cc1cc(O)cc2oc3cc(O)c4c(c3c12)COC4=O	4.72 min
COC(=O)C(=C1OC(=O)C(c2ccc(OC)cc2)=C1O)c1ccccc1	6.71 min
CCC(C)C(NC(=O)c1ccccc1)C(=O)OCC(NC(=O)c1ccccc1)C(C)C (stereo not given)	6.17 min
CCCCCCCCCCCC1OC(=O)C(C)C1C(=O)O (stereo not given)	7.46 min
Cc1cc(O)c(C=O)c2c1C(=O)Oc1c(CO)c(O)c3c(c1O2)C(O)OC3=O (stereo not given)	4.51 min
Cc1cc(O)c2c(c1)C(=O)c1c(c(O)cc(O)c1-c1c(C)cc(O)c3c1C(=O)c1cc(O)cc(O)c1C3=O)C2=O	6.58 min
Cc1cc(O)cc2oc3cc(O)cc(O)c3c(=O)c12	5.15 min
CCCCCC(=O)Cc1cc(OC)cc(O)c1C(=O)Oc1cc(CCCCC)c(C(=O)O)c(OC)c1	7.1 min
CC(=O)C1=C(O)C=C2Oc3c(C)c(O)c(C(C)=O)c(O)c3C2(C)C1=O (stereo not given)	7.45 min

SMILES	LC retention time
COc1cc(C)c(C(=O)Oc2c(C)cc(O)c(C=O)c2O)c(O)c1C(=O)O	5.7 min
CCCCCc1cc(OC)cc(O)c1C(=O)O	6.19 min
CCCCCC(=O)Cc1cc(O)c(O)c2c1C(=O)Oc1cc(O)c(C(=O)O)c(CCCCC)c1O2	6.62 min
COC1=C(O)c2cc3oc(C(C)=O)c(O)c3c(O)c2C(=O)C1=O	4.27 min
CCCCCc1cc(OC(=O)c2c(CCCCC)cc(O)cc2OC)cc(OC)c1C(=O)O	6.6 min
C=C1C(=O)OC(CCCCCCCCCCCCC)C1C(=O)O (stereo not given)	7.88 min
CC(=O)OCC1OC(Oc2cc(O)c3c(=O)cc(C)oc3c2C)C(OC(C)=O)C(OC(C)=O)C1O (stereo not given)	5.4 min
Cc1cc(O)c2c(c1)C(=O)c1cccc(O)c1C2=O	6.39 min
CCCc1cc(O)cc(O)c1C(=O)O	4.15 min
CCCCCC(=O)Cc1cc(O)cc(O)c1C(=O)Oc1cc(O)c(C(=O)O)c(CCCCC)c1	6.74 min
Cc1cc(O)c(C=O)c(O)c1C(=O)OCc1cc(O)c(C)c(O)c1C(=O)O	6.74 min
COc1cc(C)c2c(c1C)Oc1c(cc(O)c(C(=O)O)c1C)OC2=O	6.23 min
CC1OC2(C(C)C(O)C1C)C(C)C1OC(=O)C2(C)C(=O)C1C (stereo not given)	5.25 min
Cc1cc(O)c(C=O)c(O)c1C(=O)O	7.07 min
CCCCCCCCCCCCCCC(C(=O)O)C(CC(=O)O)C(=O)O (stereo not given)	7.46 min
CCCCCc1cc(OC)c(O)c2c1C(=O)Oc1cc(O)c(C(=O)O)c(CCCCC)c1O2	7.36 min
COc1cc(O)cc(C)c1C(=O)O	2.35 min
Cc1cc(O)c(C)c(O)c1C(=O)O	3.99 min
CCC(C)CC(C)C(O)C(C)C(=O)OC(C(C)CC(C)CC)C(C)C(=O)O (stereo not given)	7.83 min
Cc1cc(O)c(C=O)c2c1C(=O)Oc1c(C)c(O)c3c(c1O2)C(O)OC3=O (stereo not given)	5.3 min
COc1cc(C)c2c(c1C=O)Oc1c(c(C)c(O)c3c1C(O)OC3=O)OC2=O (stereo not given)	4.93 min
CCCCCCCCCCCCCC1OC(=O)C(C)C1C(=O)O (stereo not given)	8 min
